In patent US11324720B2, “Antiproliferative DNA polymerase inhibitor” (NEW YORK MEDICAL COLLEGE, priority 2018, dated 2022):

Columns and labels:
[1] = system: HCC1395 cells; test: MTT assay with PARP inhibitors with or without zelpolib; format: cell-based, human; settings: for sensitivity of HCC1395 cells to the PARP inhibitor alone: HR-proficient triple-negative breast cancer cell line
Method: However, there have been minimal clinical benefits for HR-proficient cancers^37-41. Since zelpolib can inhibit HR, we explored the effect of zelpolib in combination with PARP inhibitors on HR-proficient cancer cells. The hypothesis is that zelpolib will lead to an HR-defect through inhibition of Pol δ and render HR-proficient cells sensitive to PARP inhibition. […] The cells were treated with increasing concentrations of PARP inhibitor Niraparib (FIG. 5B) or Rucaparib (FIG. 5C) in the absence or presence of 2.5 μM zelpolib for 48 hrs. The number of cells were then analyzed by MTT assay.
(§1) Human cancer cells (5×10^3-7.5×10^3) were initially seeded in 96-well plates (Cellstar) containing 0.2 ml media per well. After 24 hrs, these cells were treated with variable concentrations drug combinations for 48-72 hrs. Subsequently, 4,5-dimethylthiazol-2-yl-2,5-diphenyltetrazolium bromide (MTT) (20 μl of 5 mg/ml) was added to each well for 3 hrs. Formazan crystals were then dissolved in 150 μl DMSO and optical density was read at 490 nm^25. All experiments were performed in triplicates. Results were analyzed by GraphPad Prism. Data represent mean value±SEM for each concentration of inhibitor combinations.

[2] = system: MCF7 cells; test: Cell proliferation assay, MTT method; format: cell-based, human; settings: 72 h
Text: DNA replication precedes cell division. Thus, cancer cells cannot divide and proliferate without successful chromosomal duplication. A DNA polymerase inhibitor should inhibit cancer cell proliferation. We characterized the antiproliferative properties of zelpolib on a number of cell lines originated from pancreatic cancer (BxPC-3) and breast cancer (MCF7 for ER+ breast cancer). In addition, we developed a cisplatin resistant subline of a pancreatic cancer cell line, R-BxPC3 for our studies as well. We used the MTT method^25 for analyzing cell proliferation. This assay is based on the reduction of 3-(4,5-dimethylthiazol-2-yl)-2,5-diphenyltetrazolium bromide by live cells to an insoluble formazon, which were subsequently dissolved in DMSO and quantified by UV absorbance. Therefore, the cell number is proportional to the optical density in the established linear region. […] The plateau phenomena indicate inhibition of proliferation without cell killing, similar to these observed from hydroxyurea^26, aphidicolin^27, and to a certain extent, methotrexate treatments^28. Direct inhibition of DNA polymerase activity provides a unique mechanism that is not employed by any of the current cancer therapeutics. We selected a number of most widely prescribed chemotherapeutics with distinct mechanisms to compare their antiproliferative potential in the 2 cancer cell lines. We included alkylating agent cisplatin, antimetabolites methotrexate and 5-flourouracil (5FU)^29-31. […] Whereas the comparison with cisplatin is biphasic.
as §1

[3] = system: BRCA1/2 mutant population; settings: maintenance therapy; cited from earlier work

## NC(=O)c1cccc2cn(-c3ccc([C@@H]4CCCNC4)cc3)nc12 [Niraparib]
[1]; HCC1395 proliferation, 48 hrs
  Niraparib concentration with 2.5 μM zelpolib that achieves the effect of 25 μM Niraparib alone: 5 µM
[1]
  sensitivity of HCC1395 cells to the PARP inhibitor alone: insensitive

## CNCc1ccc(-c2[nH]c3cc(F)cc4c3c2CCNC4=O)cc1 [Rucaparib]
[1]
  sensitivity of HCC1395 cells to the PARP inhibitor alone: insensitive

## N.N.[Cl][Pt][Cl] [cisplatin, reference compound]
[2]
  antiproliferative activity, zelpolib versus cisplatin: more effective beyond 5 μM

## O=C(c1cc(Cc2n[nH]c(=O)c3ccccc23)ccc1F)N1CCN(C(=O)C2CC2)CC1 [olaparib]
[3]
  hazard ratio in progression-free survival: 0.18
  reduction in the risk of progression or death: 82%
